Data on 10 molecules can be found in ChEMBL document CHEMBL1131679, “Synthesis and activity of sulfonamide-substituted 4,5-diaryl thiazoles as selective cyclooxygenase-2 inhibitors” (Bioorg Med Chem Lett, 1999).

As a reminder, the IC50 is the concentration at which inhibition is half-maximal. A low value points to greater potency in that assay. One may read the inhibition in vivo as the relative decrease from the control value, in per cent. A higher inhibition in vivo goes with a strong effect.

For test [1], the target named is T1, Prostaglandin G/H synthase 2 (Homo sapiens, UniProt P35354).
T1 sequence (P35354 whole entry): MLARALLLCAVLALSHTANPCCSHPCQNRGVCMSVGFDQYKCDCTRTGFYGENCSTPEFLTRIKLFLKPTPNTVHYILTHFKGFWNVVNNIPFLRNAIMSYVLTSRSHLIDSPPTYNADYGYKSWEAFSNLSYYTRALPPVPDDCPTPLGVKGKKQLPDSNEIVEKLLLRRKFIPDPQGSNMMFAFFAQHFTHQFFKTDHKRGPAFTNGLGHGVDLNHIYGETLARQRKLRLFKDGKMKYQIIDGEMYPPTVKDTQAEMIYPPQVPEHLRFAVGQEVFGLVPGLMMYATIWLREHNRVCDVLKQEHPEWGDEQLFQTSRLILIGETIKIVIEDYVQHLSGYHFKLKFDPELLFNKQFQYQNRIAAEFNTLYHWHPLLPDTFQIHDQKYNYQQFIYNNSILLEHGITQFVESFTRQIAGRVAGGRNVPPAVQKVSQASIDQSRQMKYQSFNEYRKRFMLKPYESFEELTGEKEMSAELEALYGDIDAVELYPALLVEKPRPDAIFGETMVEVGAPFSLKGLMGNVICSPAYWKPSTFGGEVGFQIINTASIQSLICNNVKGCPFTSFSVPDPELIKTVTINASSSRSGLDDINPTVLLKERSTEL
Put plainly: In vitro inhibitory activity against human Prostaglandin G/H synthase 2 (COX-2).

Test [2] concerns the target Prostaglandin G/H synthase 1 (Homo sapiens, UniProt P23219).
Description: Inhibition of human Prostaglandin G/H synthase 1
In another test the test system is Rattus norvegicus. Put plainly: In vivo activity was determined by rat pouch assay at concentration of 2 mg/kg. Type of test: functional.

Prostaglandin G/H synthase 1, sequence (P23219 whole entry): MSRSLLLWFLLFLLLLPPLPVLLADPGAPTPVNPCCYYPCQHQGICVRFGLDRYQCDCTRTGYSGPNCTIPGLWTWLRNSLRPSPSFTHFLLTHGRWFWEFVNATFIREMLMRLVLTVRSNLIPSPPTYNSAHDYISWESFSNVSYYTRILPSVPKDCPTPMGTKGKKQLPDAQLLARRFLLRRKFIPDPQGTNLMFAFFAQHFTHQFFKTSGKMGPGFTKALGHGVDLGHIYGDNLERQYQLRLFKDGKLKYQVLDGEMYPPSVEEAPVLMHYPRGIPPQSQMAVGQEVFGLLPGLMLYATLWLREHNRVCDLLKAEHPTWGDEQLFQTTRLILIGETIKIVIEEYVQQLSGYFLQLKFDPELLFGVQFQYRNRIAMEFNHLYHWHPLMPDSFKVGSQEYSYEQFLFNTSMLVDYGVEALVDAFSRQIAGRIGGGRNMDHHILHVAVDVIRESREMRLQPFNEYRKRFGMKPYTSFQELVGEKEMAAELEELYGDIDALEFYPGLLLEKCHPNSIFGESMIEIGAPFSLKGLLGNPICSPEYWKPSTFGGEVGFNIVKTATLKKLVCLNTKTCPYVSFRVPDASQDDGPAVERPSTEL

Regarding `COc1ccc(-c2nc(NCc3ccccc3)sc2-c2ccc(S(N)(=O)=O)cc2)cc1F`, the IC50 was 59 nM in test [1] and 10 nM in test [2].
Take `Cc1nc(-c2ccc(S(N)(=O)=O)cc2)c(-c2ccccc2)s1`: the figures for the IC50 in test [1] and in test [2] were 29 nM and 72500 nM, respectively. Further, the inhibition in vivo at 2 mg/kg in the test on Rattus norvegicus came to 7%.
As for `Cc1nc(-c2ccc(S(N)(=O)=O)cc2)c(-c2ccc(Cl)cc2)s1`, the IC50 in test [1] was determined as 18 nM; in test [2], 35600 nM. This molecule also registered an inhibition in vivo at 2 mg/kg with Rattus norvegicus of 30%.
Taken in the same sequence, the figures for `Cc1nc(-c2ccccc2)c(-c2ccc(S(N)(=O)=O)cc2)s1` were 38 nM, 34000 nM and 59%.
As for `NS(=O)(=O)c1ccc(-c2sc(-c3ccccc3Cl)nc2-c2ccc(F)cc2)cc1`, the IC50 in test [1] was 13 nM; in test [2], 80 nM. Moreover, the inhibition in vivo at 2 mg/kg with Rattus norvegicus was found to be 50%.
In the case of `NS(=O)(=O)c1ccc(-c2sc(COc3cc(Cl)cc(Cl)c3)nc2-c2ccc(F)cc2)cc1`, the IC50 in test [2] came out at 120 nM.
In the case of `COc1ccc(-c2nc(-c3ccccc3Cl)sc2-c2ccc(S(N)(=O)=O)cc2)cc1F`, the IC50 in test [1] was 2480 nM; in test [2], over 100000 nM. Also, in the test on Rattus norvegicus, the inhibition in vivo at 2 mg/kg was 33%.
Taken in the same sequence, the figures for `Cc1nc(-c2ccc(Cl)cc2)c(-c2ccc(S(N)(=O)=O)cc2)s1` were 5 nM, 1840 nM and 42%.
In the case of `Cc1nc(-c2ccc(S(N)(=O)=O)cc2)c(-c2ccc(Br)cc2)s1`, the IC50 in test [1] worked out at 24 nM; in test [2], 115000 nM.
The corresponding values for `COc1ccc(-c2nc(C)sc2-c2ccc(S(N)(=O)=O)cc2)cc1F` are 28 nM and 4180 nM.
